Here are results for 29 compounds from US8809342B2, “Glucagon receptor modulators” (Pfizer Inc., priority 2010, dated 2014).

Each structure is given as a SMILES string.

T1 sequence (P47871 26-477): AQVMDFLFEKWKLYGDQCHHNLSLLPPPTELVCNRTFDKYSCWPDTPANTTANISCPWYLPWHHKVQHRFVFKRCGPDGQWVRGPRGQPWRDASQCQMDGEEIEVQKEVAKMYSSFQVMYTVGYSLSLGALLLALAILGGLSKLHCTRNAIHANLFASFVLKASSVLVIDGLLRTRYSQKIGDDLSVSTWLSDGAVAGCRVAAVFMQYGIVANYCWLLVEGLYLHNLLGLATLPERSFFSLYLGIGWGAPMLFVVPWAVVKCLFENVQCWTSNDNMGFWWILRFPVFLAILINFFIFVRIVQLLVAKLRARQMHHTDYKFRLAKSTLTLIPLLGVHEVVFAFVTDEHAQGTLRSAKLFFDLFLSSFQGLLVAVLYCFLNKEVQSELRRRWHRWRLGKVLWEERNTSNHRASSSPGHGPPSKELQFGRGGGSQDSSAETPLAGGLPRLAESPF

This experiment addresses T1, human glucagon receptor (Homo sapiens, UniProt P47871).
T1 construct: expressed in transfected cells; host or cells: CHO-K1 cells, stably transfected
Kind of experiment: Glucagon cAMP assay (Cisbio cAMP detection). Type of experiment: cell-based. Here is the method:
The Cisbio cAMP detection assay is used to determine the ability of punitive glucagon antagonist to block glucagon induced cAMP production. Potential glucagon antagonists are re-suspended and diluted in 100% DMSO. Prior to use in the Glucagon cAMP assay 100×DMSO compound stocks are diluted 20× with DMEM-F12 media (Invitrogen) containing either 0.1% or 4% BSA. 2 uls of 5× compound stocks are spotted into the appropriate wells of low binding white solid bottom 384 well plates (Corning). 2 uls of 5% DMSO or known glucagon antagonist are added to each plate to define the assay window. CHOK1 cells stably transfected with the human glucagon receptor are removed from culture flasks with cell dissociation buffer. Cell pellets are re-suspended, at a concentration of 8.3e^5 cells/ml in DMEM-F12 with or without 4% BSA and 200 uM IBMX. 6 uls of cell suspensions are added to the assay plates. Plates are incubated for 20 min at room temperature prior to the addition of a 100 pM challenge dose of glucagon. On a separate plate glucagon dose response curves are run to determine the EC50 of glucagon. After a 30 min room temperature incubation the reaction is terminated by the addition of lysis buffer containing the cAMP detection reagents. Plates are incubated for an additional 60 min at room temperature prior to being read on the Perkin Elmer fluorescent plate reader. Raw is converted to nM of cAMP produced based on a cAMP standard curve. Converted data is then analyzed using the Pfizer data analysis program. IC50 values are determined from the generated sigmoidal dose response curves. Kb values are the calculated using a modified Cheng-Prusoff equation.
In turn, `CCCC(Nc1cnc(-c2ccc(C(F)(F)F)cc2)nc1)c1ccc(C(=O)NCCC(=O)O)cc1` (single isomer, unassigned; isomer 1) [Example 2.16, 3-(4-(1-(2-(4-(trifluoromethyl)phenyl)pyrimidin-5-ylamino)butyl)benzamido)propanoic acid, Isomer 1] came in with a Kb of 120 nM.

Consider `CCCC(Nc1cnc(-c2ccc(C(F)(F)F)cc2)c(C)c1)c1ccc(C(=O)NCCC(=O)O)cn1` (racemic) [Example 2.9, (+/−)-3-(6-(1-(5-methyl-6-(4-(trifluoromethyl)phenyl)pyridin-3-ylamino)butyl)nicotinamido)propanoic acid], for which the Kb turned out to be 820 nM.

In the case of `CCC(Nc1ccc(C(=O)NCCC(=O)O)cn1)c1ccc(-c2ccc(C(F)(F)F)cc2)cc1` (racemic) [Example 1.11], the Kb is 280 nM.

Take `Cc1cc(NC(CC(C)C)c2ccc(C(=O)NCCC(=O)O)cn2)cc(C)c1-c1ccc(C(F)(F)F)cc1` (single isomer, unassigned; isomer 1) [Example 2.2, 3-(6-(1-(2,6-dimethyl-4′-(trifluoromethyl)biphenyl-4-ylamino)-3-methylbutyl)nicotinamido)propanoic acid, Isomer 1]: the Kb came out at 54 nM. Compound `CC(C)CC(Nc1cnc(-c2ccc(C(F)(F)F)cc2)nc1)c1ccc(C(=O)NCCC(=O)O)nc1` (centres unmarked) [Example 4.32] gave a Kb of 2700 nM. In turn, `CC(C)CC(Nc1ccc(C(=O)NCCC(=O)O)cn1)c1ccc(-c2ccc(Cl)cc2)cc1` (racemic) [Example 1.53, (+/−)-3-(6-(1-(4′-chlorobiphenyl-4-yl)-3-methylbutylamino)nicotinamido)propanoic acid] gave a Kb of 46 nM. With `CC(C)CC(Nc1ncc(C(=O)NCCC(=O)O)cn1)c1ccc(-c2ccc(C(F)(F)F)cc2)cc1` (racemic) [Example 1.4, (+/−)-3-(2-(3-methyl-1-(4′-(trifluoromethyl)biphenyl-4-yl)butylamino)pyrimidine-5-carboxamido)propanoic acid] the figure was 560 nM. As to `O=C(O)CCNC(=O)c1ccc(NC(c2ccc(-c3ccc(C(F)(F)F)cc3)cc2)C2CCCOC2)nc1` (centres unmarked) [Example 4.34, 3-(6-((tetrahydro-2H-pyran-3-yl)(4′-(trifluoromethyl)biphenyl-4-yl)methylamino)nicotinamido)propanoic acid], the Kb came to 120 nM. Compound `Cc1ccc(-c2ccc(C(CC(C)C)Nc3ccc(C(=O)NCCC(=O)O)cn3)cc2)cc1` (racemic) [Example 1.50, (+/−)-3-(6-(3-methyl-1-(4′-methylbiphenyl-4-yl)butylamino)nicotinamido)propanoic acid] gave a Kb of 70 nM. With `CC(C)CC(Nc1ccc(C(=O)NCCC(=O)O)cn1)c1ccc(-c2ccccc2F)cc1` (racemic) [Example 1.38, (+/−)-3-(6-(1-(2′-fluorobiphenyl-4-yl)-3-methylbutylamino)nicotinamido)propanoic acid] the figure was 600 nM.

`CC(C)CC(Nc1ncc(C(=O)NCCC(=O)O)cn1)c1ccc(-c2ccc(C(F)(F)F)cc2)cc1` (single isomer, unassigned; isomer 1) [Example 1.5, 3-(2-(3-methyl-1-(4′-(trifluoromethyl)biphenyl-4-yl)butylamino)pyrimidine-5-carboxamido)propanoic acid, Isomer 1] yielded a Kb of 2900 nM. For `CC(C)CC(Nc1ccc(C(=O)NCCC(=O)O)cn1)c1ccc(-c2ccc(C(F)(F)F)cc2)nc1` (racemic) [Example 1.29, (+/−)-3-(6-(3-methyl-1-(6-(4-(trifluoromethyl)phenyl)pyridin-3-yl)butylamino)nicotinamido)propanoic acid], the Kb was found to be 160 nM. Take `O=C(O)CCNC(=O)c1ccc(NC(c2ccc(-c3ccc(C(F)(F)F)cc3)cc2)C2CC2)nc1` (racemic) [Example 1.34, (+/−)-3-(6-(cyclopropyl(4′-(trifluoromethyl)biphenyl-4-yl)methylamino)nicotinamido)propanoic acid]: the Kb is 550 nM.

As to `CC(C)CC(Nc1ccc(C(=O)NCc2nn[nH]n2)cn1)c1ccc(-c2ccc(C(F)(F)F)cc2)cc1` (racemic) [Example 1.21, (+/−)-N-((2H-tetrazol-5-yl)methyl)-6-(3-methyl-1-(4′-(trifluoromethyl)biphenyl-4-yl)butylamino)nicotinamide], the Kb was 520 nM.

Compound `CCCC(Nc1ccc(C(=O)NCCC(=O)O)cn1)c1ccc(-c2ccc(C(F)(F)F)cc2)c(C#N)c1` (racemic) [Example 4.8, (±)-3-(6-((1-(2-cyano-4′-(trifluoromethyl)-[1,1′-biphenyl]-4-yl)butyl)amino)nicotinamido)propanoic acid] had a Kb of 200 nM. `Cc1cc(NC(CC(C)C)c2ccc(C(=O)NCCC(=O)O)cn2)cnc1-c1ccc(C(F)(F)F)cc1` (racemic) [Example 2.8, (+/−)-3-(6-(3-methyl-1-(5-methyl-6-(4-(trifluoromethyl)phenyl)pyridin-3-ylamino)butyl)nicotinamido)propanoic acid]: the Kb was determined as 130 nM. For the compound `CC(C)CC(Nc1ccc(-c2ccc(C(F)(F)F)cc2)cc1)c1ccc(C(=O)Nc2nn[nH]n2)cn1` (racemic) [Example 2.13, (+/−)-6-(3-methyl-1-(4′-(trifluoromethyl)biphenyl-4-ylamino)butyl)-N-(2H-tetrazol-5-yl)nicotinamide], the Kb came out at 1900 nM. `CC(C)CC(Nc1ccc(C(=O)N(C)CCC(=O)O)cn1)c1ccc(-c2ccc(C(F)(F)F)cc2)cc1` (racemic) [Example 1.23, (+/−)-3-(N-methyl-6-(3-methyl-1-(4′-(trifluoromethyl)biphenyl-4-yl)butylamino)nicotinamido)propanoic acid] yielded a Kb of 300 nM.

`CCCC(Nc1ccc(C(=O)NCCC(=O)O)cn1)c1ccc(-c2ccc(C(F)(F)F)cc2)cc1` (single isomer, unassigned; isomer 2) [Example 1.9, 3-(6-(1-(4′-(trifluoromethyl)biphenyl-4-yl)butylamino)nicotinamido) propanoic acid, Isomer 2] gave a Kb of 130 nM. With `CC(C)CC(Nc1ccc(-c2ccc(C(F)(F)F)cc2)cc1)c1ccc(C(=O)NCc2nnn[nH]2)cn1` (racemic) [Example 2.12, (+/−)-N-((1H-tetrazol-5-yl)methyl)-6-(3-methyl-1-(4′-(trifluoromethyl)biphenyl-4-ylamino)butyl)nicotinamide] the figure was 730 nM; with `CC(C)C(Nc1ccc(C(=O)NCCC(=O)O)cn1)c1ccc(-c2ccc(C(F)(F)F)cc2)cc1` (racemic) [Example 1.10, (+/−)-3-(6-(2-methyl-1-(4′-(trifluoromethyl)biphenyl-4-yl)propylamino)nicotinamido)propanoic acid], 180 nM. In turn, `COc1cccc(-c2ccc(C(CC(C)C)Nc3ccc(C(=O)NCCC(=O)O)cn3)cc2)c1` (racemic) [Example 1.47, (+/−)-3-(6-(1-(3′-methoxybiphenyl-4-yl)-3-methylbutylamino)nicotinamido)propanoic acid] registered a Kb of 180 nM. As to `CC(C)CC(Nc1cnc(C(=O)NCCC(=O)O)cn1)c1ccc(-c2ccc(C(F)(F)F)cc2)cc1` (racemic) [Example 1.16, (+/−)-3-(5-(3-methyl-1-(4′-(trifluoromethyl)biphenyl-4-yl)butylamino)pyrazine-2-carboxamido)propanoic acid], the Kb amounted to 150 nM. `CC(C)CC(Nc1ccc(C(=O)NCCC(=O)O)cn1)c1ccc(-c2ccccc2)cc1` (racemic) [Example 1.37]: the Kb was determined as 220 nM. On to `CCC[C@@H](Nc1cnc(-c2ccc(C(F)(F)F)cc2)cn1)c1ccc(C(=O)NCCC(=O)O)cc1` [Example 4.5, (R)-3-(4-(1-((5-(4-(trifluoromethyl)phenyl)pyrazin-2-yl)amino)butyl)benzamido)propanoic acid], for which the Kb was determined as 820 nM. Consider `CCCC(Nc1ncc(C(=O)NCCC(=O)O)cn1)c1ccc(-c2ccc(C(F)(F)F)cc2)cc1` (centres unmarked) [Example 4.17, 3-(2-(1-(4′-(trifluoromethyl)biphenyl-4-yl)butylamino)pyrimidine-5-carboxamido)propanoic acid], for which the Kb came to 340 nM. With `CC(C)CC(Nc1ccc(C(=O)N(C)CCC(=O)O)cn1)c1ccc(-c2ccc(C(F)(F)F)cc2)cc1` (single isomer, unassigned) [Example 4.6, 3-(N-methyl-6-((3-methyl-1-(4′-(trifluoromethyl)-[1,1′-biphenyl]-4-yl)butyl)amino)nicotinamido)propanoic acid (single enantiomer)], the Kb stood at 53 nM. `CCCC(Nc1ccc(C(=O)NCCC(=O)O)cn1)c1ccc(-c2ccc(C(F)(F)F)cc2)cc1` (single isomer, unassigned; isomer 1) [Example 1.8, 3-(6-(1-(4′-(trifluoromethyl)biphenyl-4-yl)butylamino)nicotinamido) propanoic acid, Isomer 1] showed a Kb of 1000 nM. Consider `CC(C)CC(Nc1ccc(C(=O)NCCC(=O)O)cn1)c1ccc(-c2ccc(C(=O)N(C)C)cc2)cc1` (racemic) [Example 1.56, (+/−)-3-(6-(1-(4′-(dimethylcarbamoyl)biphenyl-4-yl)-3-methylbutylamino)nicotinamido)propanoic acid], for which the Kb was 5000 nM.
